# From patent US12012398B2, “Bicyclic compounds as androgen receptor modulators” (NIDO BIOSCIENCES, INC., priority 2021, dated 2024)
# Counter-ions that a name gives are not always drawn.
# System: LNCaP cells expressing ARR2PB-FireflyLuc and CMV-RenillaLuc
# Experiment: LNCaP ARR2PB-FireflyLuc reporter assay, antagonist mode;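 also: IC50 bins in nM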
# Assay type: cell-based
# Details: Homo sapiens, LNCaP, 48 h, +0.5 nM DHT, 48 h at 37° C., read-out: LNCap Antagonist Archive: IC50
# Description: LNCaP cells expressing ARR2PB-FireflyLuc and CMV-RenillaLuc were treated with indicated concentrations of test compounds, enzalutamide (negative control), or DHT (positive control)+/−0.5 nM DHT for 48 h at 37° C. Fluorescent signals were read with the ImageXpress Micro Confocal System. Remaining activity (antagonist mode) was calculated as % Remaining Activity=100×[(ReadSample−LCave)/(HCave−LCave)] where HC is cells treated with 0.5 nM DHT only and LC is cells treated with 10 uM enzalutamide+0.5 nM DHT. Activation (agonist mode) was calculated as % Activation=100×[(ReadSample−LCave)/(HCave−LCave)] where HO is cells treated with 1 uM DHT and LC is cells treated with DMSO. Dose response curves and IC50 values were calculated using non-linear regression analysis in XLfit.
# The designation “A” indicates an IC50 value of >10 μM, “B” indicates an IC50 value between 1 μM and 10 μM; “C” indicates an IC50 value between 100 nM and 1 μM; and “D” indicates an IC50 value of less than 100 nM.
row,Structure (SMILES),IC50 [µM]
1,"Cc1nc(-c2c(C(=O)N(Cc3ccco3)C(C)C)[nH]c3cc(F)ccc23)ccc1N [Example 1, 3-(5-amino-6-methylpyridin-2-yl)-6-fluoro-N-(furan-2-ylmethyl)-N-isopropyl-1H-indole-2-carboxamide]",> 10
2,"CC(C)N(Cc1ncco1)C(=O)c1cc2ccc(F)cc2[nH]1 [Example 2, 6-fluoro-N-isopropyl-N-(1,3-oxazol-2-ylmethyl)-1H-indole-2-carboxamide]",> 10
3,"CC(C)N(Cc1ccco1)C(=O)c1cc2cccc(C#N)c2[nH]1 [Example 3, 7-cyano-N-(furan-2-ylmethyl)-N-isopropyl-1H-indole-2-carboxamide]",1 to 10
4,"CC(C)N(CC1CCCO1)C(=O)c1cc2ccc(F)cc2[nH]1 (centres unmarked) [Example 4, 6-fluoro-N-isopropyl-N-(oxolan-2-ylmethyl)-1H-indole-2-carboxamide]",> 10
5,"CC(C)N(Cc1ccon1)C(=O)c1cc2ccc(F)cc2[nH]1 [Example 5, 6-fluoro-N-isopropyl-N-(1,2-oxazol-3-ylmethyl)-1H-indole-2-carboxamide]",1 to 10
6,"CC(C)N(Cc1cnco1)C(=O)c1cc2ccc(F)cc2[nH]1 [Example 6, 6-fluoro-N-isopropyl-N-(1,3-oxazol-5-ylmethyl)-1H-indole-2-carboxamide]",1 to 10
7,"CC(C)N(Cc1ccccn1)C(=O)c1cc2ccc(F)cc2[nH]1 [Example 7, 6-fluoro-N-isopropyl-N-(pyridin-2-ylmethyl)-1H-indole-2-carboxamide]",> 10
8,"CC(C)N(Cc1ccno1)C(=O)c1cc2ccc(F)cc2[nH]1 [Example 8, 6-fluoro-N-isopropyl-N-(1,2-oxazol-5-ylmethyl)-1H-indole-2-carboxamide]",1 to 10
9,"CC(C)N(Cc1cccnc1)C(=O)c1cc2ccc(F)cc2[nH]1 [Example 9, 6-fluoro-N-isopropyl-N-(pyridin-3-ylmethyl)-1H-indole-2-carboxamide]",1 to 10
10,"CC(C)N(Cc1ccncc1)C(=O)c1cc2ccc(F)cc2[nH]1 [Example 10, 6-fluoro-N-isopropyl-N-(pyridin-4-ylmethyl)-1H-indole-2-carboxamide]",1 to 10
11,"CC(C)N(C(=O)c1cc2ccc(F)cc2[nH]1)c1ccccc1 [Example 11, 6-fluoro-N-isopropyl-N-phenyl-1H-indole-2-carboxamide]",0.1 to 1
12,"COCCN(C(=O)c1cc2ccc(F)cc2[nH]1)c1ccccc1 [Example 12, 6-fluoro-N-(2-methoxyethyl)-N-phenyl-1H-indole-2-carboxamide]",1 to 10
13,"CN(C(=O)c1cc2ccc(F)cc2[nH]1)c1ccccn1 [Example 13, 6-fluoro-N-methyl-N-(pyridin-2-yl)-1H-indole-2-carboxamide]",1 to 10
14,"CN(C(=O)c1cc2ccc(F)cc2[nH]1)c1cccnc1 [Example 14, 6-fluoro-N-methyl-N-(pyridin-3-yl)-1H-indole-2-carboxamide]",> 10
15,"CN(C(=O)c1cc2ccc(F)cc2[nH]1)c1ccncc1 [Example 15, 6-fluoro-N-methyl-N-(pyridin-4-yl)-1H-indole-2-carboxamide]",> 10
16,"CN(C(=O)c1cc2ccc(F)cc2[nH]1)c1cccc(C#N)c1 [Example 16, N-(3-cyanophenyl)-6-fluoro-N-methyl-1H-indole-2-carboxamide]",> 10
17,"CN(C(=O)c1cc2ccc(F)cc2[nH]1)c1ccc(C#N)cc1 [Example 17, N-(4-cyanophenyl)-6-fluoro-N-methyl-1H-indole-2-carboxamide]",1 to 10
18,"CN(C(=O)c1cc2cccc(Cl)c2[nH]1)c1ccccc1 [Example 19, 7-chloro-N-methyl-N-phenyl-1H-indole-2-carboxamide]",0.1 to 1
19,"CN(C(=O)c1cc2cccc(C#N)c2[nH]1)C1CCCC1 [Example 20, 7-cyano-N-cyclopentyl-N-methyl-1H-indole-2-carboxamide]",1 to 10
20,"CN(C(=O)c1cc2cccc(C#N)c2[nH]1)c1ccccc1 [Example 21, 7-cyano-N-methyl-N-phenyl-1H-indole-2-carboxamide]",0.1 to 1
21,"CN(C(=O)c1[nH]c2ccccc2c1Cl)c1ccccc1 [Example 22, 3-chloro-N-methyl-N-phenyl-1H-indole-2-carboxamide]",> 10
22,"CN(C(=O)c1nc2ccc(F)cc2[nH]1)c1ccccc1 [Example 23, 5-fluoro-N-methyl-N-phenyl-3H-1,3-benzodiazole-2-carboxamide]",> 10
23,"CN(C(=O)c1cc2ccc(F)cc2o1)c1ccccc1 [Example 24, 6-fluoro-N-methyl-N-phenyl-1-benzofuran-2-carboxamide]",1 to 10
24,"CN(C(=O)c1cc2cccc(C(F)(F)F)c2[nH]1)c1ccccc1 [Example 25, N-methyl-N-phenyl-7-(trifluoromethyl)-1H-indole-2-carboxamide]",0.1 to 1

row,Structure (SMILES),IC50 [µM]
1,"CN(C(=O)c1cc2cccc(C(F)(F)F)c2[nH]1)c1ccccn1 [Example 26, N-methyl-N-(pyridin-2-yl)-7-(trifluoromethyl)-1H-indole-2-carboxamide]",0.1 to 1
2,"CN(C(=O)c1cc2cccc(C(F)(F)F)c2[nH]1)c1ccc(C#N)cc1 [Example 27, N-(4-cyanophenyl)-N-methyl-7-(trifluoromethyl)-1H-indole-2-carboxamide]",1 to 10
3,"CN(C(=O)c1cc2cccc(Cl)c2[nH]1)c1ccccn1 [Example 28, 7-chloro-N-methyl-N-(pyridin-2-yl)-1H-indole-2-carboxamide]",1 to 10
4,"CN(C)C(=O)c1cc2cccc(Cl)c2[nH]1 [Example 29, 7-chloro-N,N-dimethyl-1H-indole-2-carboxamide]",1 to 10
5,"CN(C(=O)c1cc2cccc(Cl)c2[nH]1)C1CCCC1 [Example 30, 7-chloro-N-cyclopentyl-N-methyl-1H-indole-2-carboxamide]",0.1 to 1
6,"CN(C(=O)c1cc2cccc(Cl)c2[nH]1)C1CCOC1 (centres unmarked) [Example 31, 7-chloro-N-methyl-N-(oxolan-3-yl)-1H-indole-2-carboxamide]",0.1 to 1
7,"CN(CC1CC1)C(=O)c1cc2cccc(Cl)c2[nH]1 [Example 32, 7-chloro-N-(cyclopropylmethyl)-N-methyl-1H-indole-2-carboxamide]",1 to 10
8,"CN(C(=O)c1cc2cccc(Cl)c2[nH]1)c1ccc(C#N)cc1 [Example 33, 7-chloro-N-(4-cyanophenyl)-N-methyl-1H-indole-2-carboxamide]",1 to 10
9,"CN(C(=O)c1cc2cccc(C#N)c2o1)c1ccc(F)cc1 [Example 34, 7-cyano-N-(4-fluorophenyl)-N-methyl-1-benzofuran-2-carboxamide]",> 10
10,"CN(C(=O)c1cc2cccc(Cl)c2o1)c1ccc(F)cc1 [Example 35, 7-chloro-N-(4-fluorophenyl)-N-methyl-1-benzofuran-2-carboxamide]",1 to 10
11,"CN(C(=O)c1cc2cccc(C(F)(F)F)c2o1)c1ccc(F)cc1 [Example 36, N-(4-fluorophenyl)-N-methyl-7-(trifluoromethyl)benzofuran-2-carboxamide]",1 to 10
12,"CN(C(=O)c1cc2cccc(Cl)c2o1)c1ccccn1 [Example 37, 7-chloro-N-methyl-N-(pyridin-2-yl)-1-benzofuran-2-carboxamide]",> 10
13,"CN(C(=O)c1cc2ccc(F)cc2o1)c1ccccn1 [Example 38, 6-fluoro-N-methyl-N-(pyridin-2-yl)-1-benzofuran-2-carboxamide]",> 10
14,"CN(C(=O)c1cc2ccc(F)cc2o1)c1ccc(F)cc1 [Example 39, 6-fluoro-N-(4-fluorophenyl)-N-methyl-1-benzofuran-2-carboxamide]",1 to 10
15,"CN(C(=O)c1cc2cccc(Cl)c2[nH]1)C1CCNC1 (centres unmarked) [Example 40, 7-chloro-N-methyl-N-(pyrrolidin-3-yl)-1H-indole-2-carboxamide trifluoroacetic acid salt]",> 10
16,"CC(C)N1CCC(N(C)C(=O)c2cc3cccc(Cl)c3[nH]2)C1 (centres unmarked) [Example 41, 7-chloro-N-(1-isopropylpyrrolidin-3-yl)-N-methyl-1H-indole-2-carboxamide]",> 10
17,"CN(C(=O)c1cc2cccc(Cl)c2[nH]1)C1CCCNC1 (centres unmarked) [Example 42, 7-chloro-N-methyl-N-(piperidin-3-yl)-1H-indole-2-carboxamide]",> 10
18,"CN(C(=O)c1cc2cccc(Cl)c2[nH]1)C1CCNCC1 [Example 43, 7-chloro-N-methyl-N-(piperidin-4-yl)-1H-indole-2-carboxamide]",> 10
19,"CC(C)N1CCCC(N(C)C(=O)c2cc3cccc(Cl)c3[nH]2)C1 (centres unmarked) [Example 44, 7-chloro-N-(1-isopropylpiperidin-3-yl)-N-methyl-1H-indole-2-carboxamide]",> 10
20,"CC(C)N1CCC(N(C)C(=O)c2cc3cccc(Cl)c3[nH]2)CC1 [Example 45, 7-chloro-N-(1-isopropylpiperidin-4-yl)-N-methyl-1H-indole-2-carboxamide]",> 10
21,"NCCN(CC1CC1)C(=O)c1cc2cccc(Cl)c2[nH]1 [Example 47, N-(2-aminoethyl)-7-chloro-N-(cyclopropylmethyl)-1H-indole-2-carboxamide]",> 10
22,"COCCN(C(=O)c1cc2ccc(F)cc2[nH]1)c1cnn(C)c1 [Example 49, 6-fluoro-N-(2-methoxyethyl)-N-(1-methylpyrazol-4-yl)-1H-indole-2-carboxamide]",> 10
23,"COCCN(C(=O)c1cc2ccc(F)cc2[nH]1)c1ccc(C#N)cc1 [Example 51, N-(4-cyanophenyl)-6-fluoro-N-(2-methoxyethyl)-1H-indole-2-carboxamide]",1 to 10
